According to article PMC3506555, “[^11C]phenytoin revisited: synthesis by [^11C]CO carbonylation and first evaluation as a P-gp tracer in rats” (EJNMMI Research, 2012):
Entries after “also recorded” stand apart in the source; their conditions may differ. Read-outs that look alike come from different tables or passages of the source.

Key:
P-gp [1] = experiment: PET Logan graphical analysis of brain VT, baseline and after tariquidar P-gp block; assay type: in vivo, Sprague–Dawley rats; details: for Kp: Sprague-Dawley; for Kp / Increase in cerebral distribution volume (VT) after tariquidar compared with baseline: rat; for P-gp substrate character: conclusion from tariquidar predosing studies in rats; for Increase in cerebral distribution volume (VT) after tariquidar compared with baseline: tariquidar 15 mg·kg^−1 predosing
Description: (§1) Following cannulation of the femoral vein, animals were positioned in pairs in a double LSO/LYSO layer high-resolution research tomograph (CTI/Siemens, Knoxville, TN, USA). First, for attenuation and scatter correction purposes, a transmission scan was acquired using a 740-MBq two-dimensional fan-collimated ^137Cs (662 keV) moving point source. Next, a dynamic emission scan was acquired immediately following administration of 17.1 ± 2.1 MBq (mean ± SD) ^11C]phenytoin to each rat. Two animals had one single ^11C]phenytoin scan; two animals had two consecutive scans, and two had three consecutive scans. Finally, all animals underwent an ^18F]FDG scan before being euthanized. Tariquidar, 15 mg·kg^−1, was used to completely block P-gp, while probenecid, 150 mg·kg^−1, was used to inhibit multi-resistant protein (MRP) efflux proteins. Tariquidar and probenecid were administered i.v. 20 min prior to the scan start as a 10-min infusion. All animals, except one, were scanned without any treatment prior to the first ^11C]phenytoin scan. Of the animals that had two scans, one underwent two post-tariquidar scans (animal 4, Table 1). […] Animals that underwent three consecutive scans had one baseline, one post probenecid and one post-tariquidar scan. During each scan, emission data were acquired for 60 min in list mode and rebinned into the following frame sequence: 7 × 10, 1 × 20, 3 × 30, 2 × 60, 2 × 150, 2 × 300 and 4 × 600 s. Following corrections for decay, dead time, attenuation, random and scatter, scans were reconstructed using a 3D ordinary Poisson ordered subsets expectation maximization algorithm. […] PET image data were analyzed using the freely available software package Amide 0.9 [31]. A magnetic resonance (MR)-based rat brain atlas was used to define five regions of interest (ROIs): the hippocampus, occipital cortex, parietal cortex, caudate putamen and cerebellum. The MR atlas including all ROIs was aligned visually with the summed ^18F]FDG image for each rat. ROIs were then projected onto all frames of all ^11C]phenytoin scans, resulting in ^11C]phenytoin time-activity curves for each scan and rat.
(§2) During each [^11C]phenytoin scan, arterial blood samples of 0.1 mL were taken at 20 and 40 s and at 1, 2, 5, 15, 30 and 60 min after [^11C]phenytoin injection. For animals that underwent three scans, the amount of blood withdrawn was reduced by replacing the two samples at 15 and 30 min with a single 20-min sample. Plasma was obtained by centrifugation at 4,000 rpm for 5 min at 4°C, and activity in both plasma and whole blood was measured in an automated 1282 Compugamma CS Universal Gamma Counter (LKB Wallac, Turku, Finland), cross-calibrated against the PET scanner. Standardized uptake values (SUVs) as a function of time were derived by normalizing measured radioactivity concentrations against injected dose and body weight.
(§3) To obtain a model independent estimate of the brain-to-plasma partition coefficient, often referred to as volume of distribution, Logan graphical analysis was used. Before Logan analysis, both brain and plasma concentrations were corrected for labeled metabolites. As metabolite fractions were not measured at each plasma or mid-frame time point, linear regression was used to estimate the fraction of intact ^11C]phenytoin at each time point.

[2] = test system: multi-resistant protein (MRP) efflux proteins; experiment: PET Logan graphical analysis of brain VT after probenecid; assay type: in vivo, Sprague–Dawley rats; details: for Kp: Sprague-Dawley, rat, iv, with probenecid 150 mg/kg i.v., after probenecid 150 mg·kg^−1 i.v., n = 2, metabolite-corrected
Description: as §1, §2, §3

[3] = Arterial plasma radioactivity concentration during PET scans; assay type: in vivo, Sprague–Dawley rats
Procedure: For animals that underwent three scans, the amount of blood withdrawn was reduced by replacing the two samples at 15 and 30 min with a single 20-min sample. […] Standardized uptake values (SUVs) as a function of time were derived by normalizing measured radioactivity concentrations against injected dose and body weight.

[4] = design: method as in PMID 98619; details: dosage of 14 mg/kg, rhesus monkeys; cited from earlier work
P-gp [5] = experiment: PET brain time-activity curves (SUV), baseline and after tariquidar P-gp block; assay type: in vivo, Sprague–Dawley rats
Description: as §1, §2

Question: Which Kp (P-gp [1]; caudate putamen (relative to plasma), intravenous, baseline, n = 5, metabolite-corrected plasma input and brain data, read-out: VT (Logan), caudate putamen) does the source give for `O=C1N[11C](=O)NC1(c1ccccc1)c1ccccc1` [[^11C]phenytoin] here?
Answer: 0.98 ± 0.08

Question: What about the Kp (P-gp [1]; caudate putamen (relative to plasma), iv, with tariquidar 15 mg/kg i.v., after tariquidar 15 mg·kg^−1 i.v., n = 5, metabolite-corrected, read-out: VT (Logan), caudate putamen) of the same compound?
Answer: 1.48 ± 0.12

Question: And the Kp (P-gp [1]; cerebellum (relative to plasma), intravenous, baseline, n = 5, metabolite-corrected plasma input and brain data, read-out: VT (Logan), cerebellum)?
Answer: 1.02 ± 0.08

Question: What about the Kp (P-gp [1]; cerebellum (relative to plasma), iv, with tariquidar 15 mg/kg i.v., after tariquidar 15 mg·kg^−1 i.v., n = 5, metabolite-corrected, read-out: VT (Logan), cerebellum) of the same compound?
Answer: 1.48 ± 0.09

Question: And the Kp (P-gp [1]; hippocampus (relative to plasma), intravenous, baseline, n = 5, metabolite-corrected plasma input and brain data, read-out: VT (Logan), hippocampus)?
Answer: 0.96 ± 0.09

Question: And the Kp (P-gp [1]; hippocampus (relative to plasma), iv, with tariquidar 15 mg/kg i.v., after tariquidar 15 mg·kg^−1 i.v., n = 5, metabolite-corrected, read-out: VT (Logan), hippocampus)?
Answer: 1.43 ± 0.07

Question: And the Kp (P-gp [1]; occipital cortex (relative to plasma), intravenous, baseline, n = 5, metabolite-corrected plasma input and brain data, read-out: VT (Logan), occipital cortex)?
Answer: 0.91 ± 0.06

Question: And the Kp (P-gp [1]; occipital cortex (relative to plasma), iv, with tariquidar 15 mg/kg i.v., after tariquidar 15 mg·kg^−1 i.v., n = 5, metabolite-corrected, read-out: VT (Logan), occipital cortex)?
Answer: 1.3 ± 0.11

Question: And the Kp (P-gp [1]; parietal cortex (relative to plasma), intravenous, baseline, n = 5, metabolite-corrected plasma input and brain data, read-out: VT (Logan), parietal cortex)?
Answer: 0.91 ± 0.08

Question: And the Kp (P-gp [1]; parietal cortex (relative to plasma), iv, with tariquidar 15 mg/kg i.v., after tariquidar 15 mg·kg^−1 i.v., n = 5, metabolite-corrected, read-out: VT (Logan), parietal cortex)?
Answer: 1.35 ± 0.11

Question: What about the P-gp substrate character (P-gp [1]) of the same compound?
Answer: rather weak P-gp substrate; also recorded: moderate P-gp substrate

Question: And the P-gp substrate character (P-gp [1]; listed as 11C]phenytoin)?
Answer: rather moderate affinity for P-gp

Question: And the “Increase in cerebral distribution volume (VT) after tariquidar compared with baseline” value (P-gp [1])?
Answer: 45%

Question: What about the “Increase in cerebral distribution volume (VT) after tariquidar compared with baseline” value (P-gp [1]; listed as 11C]phenytoin) of the same compound?
Answer: about 45%

Question: What about the Kp ([2]; caudate putamen (relative to plasma), read-out: VT (Logan), caudate putamen) of the same compound?
Answer: 0.57 ± 0.01

Question: And the Kp ([2]; cerebellum (relative to plasma), read-out: VT (Logan), cerebellum)?
Answer: 0.61 ± 0.01

Question: What about the Kp ([2]; hippocampus (relative to plasma), read-out: VT (Logan), hippocampus) of the same compound?
Answer: 0.59

Question: And the Kp ([2]; occipital cortex (relative to plasma), read-out: VT (Logan), occipital cortex)?
Answer: 0.59

Question: What about the Kp ([2]; parietal cortex (relative to plasma), read-out: VT (Logan), parietal cortex) of the same compound?
Answer: 0.57 ± 0.03

Question: What about the “Change in VT after probenecid (interaction with MRP)” value ([2]; probenecid 150 mg·kg^−1, n = 2, animals in poor condition) of the same compound?
Answer: no indication of an increase in VT

Question: And the “Initial plasma concentrations after tariquidar treatment versus baseline” value ([3]; initial part of scan)?
Answer: somewhat lower than at baseline

Question: What about the “Plasma concentrations after tariquidar treatment versus baseline” value ([3]; towards the end of the scans) of the same compound?
Answer: similar

Question: And the Brain uptake [4]?
Answer: high brain uptake

Question: And the “Brain SUV at 60 min (corrected for metabolites)” value (P-gp [5]; baseline scans)?
Answer: around 0.2

Question: And the “Maximum brain SUV” value (P-gp [5]; baseline scans)?
Answer: around 0.8

Question: What about the “Brain SUV at 60 min (corrected for metabolites)” value (P-gp [5]; post-tariquidar scans) of the same compound?
Answer: ~0.3

Question: What about the “Maximum brain SUV” value (P-gp [5]; post-tariquidar scans) of the same compound?
Answer: ~0.9

Question: And the “Time of maximum brain concentration after bolus injection” value (P-gp [5]; rats)?
Answer: approximately 5 min

Question: And the “Increase in brain SUV at 10 to 60 min after tariquidar” value (P-gp [5]; tariquidar 15 mg·kg^−1, rat, on average)?
Answer: about 50%
